Measurements published in patent US20040109896A1, “Aqueous suspension eyedrops and process for producing the same” (priority 2001, published 2004).

Assays:
[1] = Laser diffraction particle size distribution analysis of acyclovir fine crystals; format: physicochemical; conditions: USP grade sterilized acyclovir fine crystals
Experimental: USP grade, sterilized acyclovir was used as fine crystals of acyclovir without any processing. Through laser diffraction particle size distribution analysis, the crystals were determined to have an average particle size of 25.9 μm.

herpes virus = conditions: Crumpaker et al., Antimicrob. Agents Chemother. 15, 642 (1979); cited from earlier work

For `Nc1nc2c(ncn2COCCO)c(=O)[nH]1` [acyclovir, 9-[(2-hydroxyethoxy)methyl]guanine], the average particle size [1] is listed as 25.9 μm and the “ID50 (50% inhibition level) of acyclovir against herpes virus” value (herpes virus) is listed as “approximately 0.03 μg/mL”.
